Results as given in patent publication US20110070232A1, “Combination Therapy with an Antitumor Alkaloid” (Pharma Mar, S.A., priority 2008, published 2011).
Like-named read-outs stand apart in the source and are kept apart here.

Experiments:
[1] = system: MRI-H-254 tumors; assay type: in vivo, mice; details: day 47
Experimental: Female athymic nude mice (Harlan Sprague Dawley, Madison, Wis.) were utilized for all experiments. Animals were housed in ventilated rack caging with food and water ad libitum. The mice were acclimated for at least 5 days prior to tumor implantation with tumor fragments. The Vehicle Control group contained 11 mice, groups 2-6 contained 8 mice/group, and the rest of groups contained 9 mice/group.
This cell line was grown and implanted to the animals as described in Example 11.
Tumor measurements were determined as disclosed in Example 4. […] Treatments were initiated on DPI 17.
PM00104 was provided in the form of vials of lyophilized PM00104 powder which was reconstituted with water for injection.
(§1) Tumor size measurements were recorded twice weekly from the treatment initiation until the termination of the study.
(§2) Mean, standard deviation and standard error of the mean were determined for tumor volume for all animal groups at all assessments. Student's t test was performed on tumor volumes at each measurement day, including at the end of the study, to determine whether there were any statistically significant differences between combination treatment groups and single monotherapy treatment groups.
The definition and criteria for the evaluation of potentiation and the degree of additivity for the combination therapy were the same as those disclose in Example 4.

[2] = system: HCT-116 (colon cancer) cell line; test: IC50 determination, MIT (tetrazolium) assay, 72 h (Example 18); assay type: cell-based, human; details: Homo sapiens; HCT-116, 72 hours of drug exposure
Experimental: HCT-116 cells were grown in McCoy's supplemented with 10% Fetal Bovine Serum (FBS), 1% penicillin/streptomycin and 2 mM L-glutamine.
(§3) Before plating, cell cultures were trypsinized and cell number estimated using an automated flow cytometer.
(§4) Cells were harvested and seeded in 96 well microtiter plates at the appropriate cell density (5,000-10,000 cells) in 150 μL of media and incubated for 24 hours to allow the cells to attach before drug addition.
(§5) After the incubation period (72 hours), 50 μL of MIT solution was added to each microtiter well and incubated for further 8 hours at 37° C. The culture medium was then removed and 50 μl, of DMSO were added to dissolve the MIT crystals. Optical densities were read at 540 nm on spectrophotometer microplate reader.
(§6) IC50 values were calculated from an average of two to four assays for each of the test agents.

[3] = system: BT-474 (breast cancer) cell line; test: as above; assay type: cell-based; details: Homo sapiens, BT-474, 72 h
Experimental: BT-474 cells were grown in RPMI supplemented with 1% ITS (insulin, transferrin and selenium), 10% Fetal Bovine Serum (FBS), 1% penicillin/streptomycin and 2 mM L-glutamine.
as §3, §4, §5, §6

[4] = system: MRI-H-254 tumors; assay type: in vivo, mice
Experimental: Female athymic nude mice (Harlan Sprague Dawley, Madison, Wis.) were utilized for all experiments. Animals were housed in ventilated rack caging with food and water ad libitum. The mice were acclimated for at least 5 days prior to tumor implantation with tumor fragments.
Treatments were initiated on DPI 16.
as §1, §2

[5] = system: Hs746T tumors; assay type: in vivo, mice
Description: Female athymic nude mice (Harlan Sprague Dawley, Madison, Wis.) were utilized for all experiments. Animals were housed in ventilated rack caging with food and water ad libitum. The mice were acclimated for at least 5 days prior to tumor implantation with a tumor cell suspension.
The tumor model used in these studies was Hs746T cell line, which was obtained from the ATCC (Manassas, Va.).
Treatments were initiated on DPI 15.
5-FU was provided as a solution which was further diluted with water for injection.
as §1, §2

[6] = day 16, PM00104 0.90, cisplatin 5, irinotecan 18, paclitaxel 25 mg/kg/day
[7] = day 20, PM00104 0.90, cisplatin 5, irinotecan 18, paclitaxel 25 mg/kg/day
[8] = day 23, PM00104 0.90, cisplatin 5, irinotecan 18, paclitaxel 25 mg/kg/day
[9] = day 26, PM00104 0.90, cisplatin 5, irinotecan 18, paclitaxel 25 mg/kg/day
[10] = day 29, PM00104 0.90, cisplatin 5, irinotecan 18, paclitaxel 25 mg/kg/day
[11] = day 33, PM00104 0.90, cisplatin 5, irinotecan 18, paclitaxel 25 mg/kg/day
[12] = day 40, PM00104 0.90, cisplatin 5, irinotecan 18, paclitaxel 25 mg/kg/day
[13] = day 48, PM00104 0.90, cisplatin 5, irinotecan 18, paclitaxel 25 mg/kg/day
[14] = PM00104 0.9, 5-FU 50 (DPI 15) then 100 (DPI 22 & 29), irinotecan 20, doxorubicin 6 mg/kg/day

COc1c(C)cc2c(c1O)[C@@H]1[C@@H]3Cc4c(OC(C)=O)c(C)c5c(c4[C@H](CNC(=O)/C=C/c4cccc(C(F)(F)F)c4)N3[C@@H](O)[C@H](C2)N1C)OCO5 [PM00104]
% Inhibition ([1]; PM00104 0.45, doxorubicin 6, paclitaxel 12.5 mg/kg/day): 78.5%
% Inhibition ([1]; PM00104 0.90, paclitaxel 12.5 mg/kg/day): 90.5%
% Inhibition ([1]; PM00104 0.9 and doxorubicin 6 mg/kg/day): 90.5%
IC50 [2]: 9 nM
IC50 [3]: 1 nM
% Inhibition ([4]; day 16, PM00104 0.90, cisplatin 3, irinotecan 10, paclitaxel 12.5 mg/kg/day): 2.0%
% Inhibition [4, 6]: 2.0%
% T/C [4, 6]: 98.0%
% Inhibition ([4]; day 20, PM00104 0.90, cisplatin 3, irinotecan 10, paclitaxel 12.5 mg/kg/day): 6.1%
% Inhibition [4, 7]: 6.1%
% T/C [4, 7]: 93.9%
% Inhibition ([4]; day 23, PM00104 0.90, cisplatin 3, irinotecan 10, paclitaxel 12.5 mg/kg/day): 43.9%
% Inhibition [4, 8]: 43.9%
% T/C [4, 8]: 56.1%
% Inhibition ([4]; day 26, PM00104 0.90, cisplatin 3, irinotecan 10, paclitaxel 12.5 mg/kg/day): 59.4%
% Inhibition [4, 9]: 59.4%
% T/C [4, 9]: 40.6%
% Inhibition ([4]; day 29, PM00104 0.90, cisplatin 3, irinotecan 10, paclitaxel 12.5 mg/kg/day): 61.7%
% Inhibition [4, 10]: 61.7%
% T/C [4, 10]: 38.3%
% Inhibition ([4]; day 33, PM00104 0.90, cisplatin 3, irinotecan 10, paclitaxel 12.5 mg/kg/day): 72.0%
% Inhibition [4, 11]: 72.0%
% T/C [4, 11]: 28.0%
% Inhibition ([4]; day 40, PM00104 0.90, cisplatin 3, irinotecan 10, paclitaxel 12.5 mg/kg/day): 81.8%
% Inhibition [4, 12]: 81.8%
% T/C [4, 12]: 18.2%
% Inhibition ([4]; day 48, PM00104 0.90, cisplatin 3, irinotecan 10, paclitaxel 12.5 mg/kg/day): 84.4%
% Inhibition [4, 13]: 84.4%
% T/C [4, 13]: 15.6%
% T/C on day 15 [5, 14]: 106.6%
% T/C on day 19 [5, 14]: 55.8%
% T/C on day 22 [5, 14]: 60.9%
% T/C on day 26 [5, 14]: 54.2%
% T/C on day 29 [5, 14]: 58.6%
% T/C on day 33 [5, 14]: 80.8%
% Inhibition ([5]; day 15, PM00104 0.9 and doxorubicin 6 mg/kg/day): −6.6%
% Inhibition ([5]; day 15, PM00104 0.9 and irinotecan 20 mg/kg/day): −6.6%
% Inhibition ([5]; day 15, mg/kg/day: PM00104 0.90 IV, 5-FU 50 at DPI 15 and 100 at DPI 22 & 29 IP): −6.6%
% Inhibition ([5]; day 19, PM00104 0.9 and doxorubicin 6 mg/kg/day): 44.2%
% Inhibition ([5]; day 19, PM00104 0.9 and irinotecan 20 mg/kg/day): 44.2%
% Inhibition ([5]; day 19, mg/kg/day: PM00104 0.90 IV, 5-FU 50 at DPI 15 and 100 at DPI 22 & 29 IP): 44.2%
% Inhibition ([5]; day 22, PM00104 0.9 and doxorubicin 6 mg/kg/day): 39.1%
% Inhibition ([5]; day 22, PM00104 0.9 and irinotecan 20 mg/kg/day): 39.1%
% Inhibition ([5]; day 22, mg/kg/day: PM00104 0.90 IV, 5-FU 50 at DPI 15 and 100 at DPI 22 & 29 IP): 39.1%
% Inhibition ([5]; day 26, PM00104 0.9 and doxorubicin 6 mg/kg/day): 45.8%
% Inhibition ([5]; day 26, PM00104 0.9 and irinotecan 20 mg/kg/day): 45.8%
% Inhibition ([5]; day 26, mg/kg/day: PM00104 0.90 IV, 5-FU 50 at DPI 15 and 100 at DPI 22 & 29 IP): 45.8%
% Inhibition ([5]; day 29, PM00104 0.9 and doxorubicin 6 mg/kg/day): 41.4%
% Inhibition ([5]; day 29, PM00104 0.9 and irinotecan 20 mg/kg/day): 41.4%
% Inhibition ([5]; day 29, mg/kg/day: PM00104 0.90 IV, 5-FU 50 at DPI 15 and 100 at DPI 22 & 29 IP): 41.4%
% Inhibition ([5]; day 33, PM00104 0.9 and doxorubicin 6 mg/kg/day): 19.2%
% Inhibition ([5]; day 33, PM00104 0.9 and irinotecan 20 mg/kg/day): 19.2%
% Inhibition ([5]; day 33, mg/kg/day: PM00104 0.90 IV, 5-FU 50 at DPI 15 and 100 at DPI 22 & 29 IP): 19.2%
